In publication PMC6584507 (Scientific Reports, 2019):
Converted amounts (≈) assume the structure as drawn.

What was measured:
[1] = tested on: house dust mite (HDM)-challenged mice; conditions: cited from earlier work
[2] = tested on: pSTAT5 in TSLP-stimulated HMC-1 cells; test: Western blot analysis of STAT5 phosphorylation; format: cell-based, human; conditions: HMC-1 cells pretreated, TSLP 20 ng/mL for 2 h
Description: (§1) HMC-1 cells were obtained from the Department of Food Technology and Inflammatory Disease Research Center (Hoseo University, Asan, Chungnam, Korea). Cells were cultured in Iscove’s modified Dulbecco’s medium (IMDM; Hyclone Laboratories Inc, USA) supplemented with 10% FBS and 1% Penicillin-streptomycin (PS; Gibco Industries Inc, USA) and incubated at 37 °C under humidified atmosphere of 95% air and 5% CO2. Recombinant hTSLP was purchased from R&D Systems (Minneapolis, USA).
[…] Activated cells were lysed and separated by 10% sodium dodecyl sulfate-polyacrylamide gel electrophoresis (SDS-PAGE). After electrophoresis, proteins were transferred to nitrocellulose membranes. The membranes were blocked, incubated with primary antibodies (1:700 dilution in PBS with 0.05% Tween-20), and developed using peroxidase-conjugated secondary antibodies (1:3000 dilution in PBS with 0.05% Tween-20). Proteins were visualized by enhanced chemiluminescence (Amersham Bioseciences, Piscataway, NJ, USA) according to the manufacturer’s instructions.

HDM-challenged mice = test: HDM-induced mouse model of allergic airway inflammation; format: in vivo; conditions: 1 (200 μg/mL) on day 4, 6 and 8; analysis on day 11
Description: Approximately 1 × 10^6 CD4 T cells from DO11.10 mice were transferred to naïve BALB/c mice intravenously. The following day, mice were challenged with a mixture of HDM (50 μg of Dermatophagoides farinae and Dermatophagoides pteronyssinus each; Greer Laboratories, Inc., USA) and 100 μg of OVA (Sigma-Aldrich Co., USA) for three days via the intranasal route. Mice were treated with 1 (200 μg) or PBS intraperitoneally three times every other day starting from […] post-challenge based on previous report. Allergen-challenged mice were sacrificed on day 11 post-challenge. […] The total cell number was counted using a hemocytometer. Leukocytes were transferred to glass slides by Cytospin (Thermo Scientific, USA) at 2,800 rpm for 5 min, and stained with Diff-Quick staining (Sysmex Corporation, Japan). Flow cytometry analysis: […] Cells were stained with anti-CD4 FITC (RM4-5, Biolegend Inc., USA), anti-CD127 PE/Cy7 (A7R34, Biolegend Inc., USA), anti-CD62L APC/Cy7 (MEL14, Biolegend Inc., USA), anti-CD27 PE (LG.7F9, eBioscience Inc., USA), and anti-DO11.10APC (KJ1-26, eBioscience Inc., USA) antibodies for 30 min. Stained cells were examined by flow cytometry using LSR Fortessa ^TM. Data were analyzed using FlowJo software Ver 9.7.6.

[3] = tested on: ovalbumin (OVA)-treated mice; conditions: cited from earlier work
[4] = target: T1, FLAG-tagged hTSLP bound to His-tagged hTSLPR (Homo sapiens, UniProt Q969D9); test: Pull-down assay, His-tagged hTSLPR and FLAG-tagged hTSLP, Western blotting; format: binding; conditions: compound at 0, 10, 50 and 100 μM
T1 construct: human TSLP28–159 with thrombin cleavage site at C-terminus; thrombin cleavage site (C); 8xHis (from vector pAB-bee-8xHis) (C, cleaved yes); made in house; host or cells: Trichoplusia ni High-Five cells, baculovirus (secreted)

carbonic anhydrase = test: 1D and CPMG relaxation-edited NMR ligand binding; conditions: 1 at 100 μM, 2.5 μM carbonic anhydrase
Description: (§2) All spectra were measured at 283, 291, and 298 K. Data processing and analysis were conducted using TopSpin 3.1 program (Bruker, Germany). One-dimensional (1D) relaxation-edited experiments were performed using the method previously described by Hadjuk et al.[23]. We used CPMG pulse train with a pre-acquisition delay of 1.8 s, a 2 ms delay for dephasing and rephrasing in spin echo, and a total spin-lock time of 400 ms. The data were collected using a spectral width of 9,615 Hz and 128 scans.

hTSLPR = target: T2, hTSLPR (Homo sapiens, UniProt Q9HC73); test: 1D and CPMG relaxation-edited NMR ligand binding; conditions: 1 at 100 μM, 2.5 μM hTSLPR
T2 construct: human TSLPR26–217 with C-terminal octa-histidine tag (hTSLPR-His); 8xHis (C); made in house; host or cells: Trichoplusia ni High-Five cells, baculovirus (secreted)
T2 sequence (Q9HC73 26-217): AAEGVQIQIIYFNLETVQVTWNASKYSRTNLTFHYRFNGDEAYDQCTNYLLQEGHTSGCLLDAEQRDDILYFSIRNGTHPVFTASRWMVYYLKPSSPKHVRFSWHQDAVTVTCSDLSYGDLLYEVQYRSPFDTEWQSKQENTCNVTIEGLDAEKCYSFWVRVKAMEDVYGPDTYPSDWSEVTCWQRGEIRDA
Description: as §2

[5] = tested on: STAT5 phosphorylation in hTSLP-stimulated HMC-1 cells; test: STAT5 assay (STAT5 phosphorylation, flow cytometry); format: cell-based, human
Description: as §1
Intracellular phospho-STAT5 (pSTAT5) staining method was based on the protocol obtained from the laboratory of Susan Kaech, Department of Immunobiology, Yale University School of Medicine (New Haven, Connecticut, USA). Briefly, HMC-1 cells were seeded in 96-well U-bottom plate at a density of 1 × 10^7 cells/mL and stimulated with 100 ng/mL recombinant hTSLP alone or with 1 for 30 min. After stimulation, cells were fixed with BD Cytofix/Cytoperm (BD Biosciences, USA) solution for 10 min. Fixed cells were then permeabilized with ice-cold methanol for 30 min, and intracellular pSTAT5 was stained with Alexa Fluor 647 mouse anti-STAT5 (pY694; BD Biosciences, USA) (1:10 dilution in FACS buffer) for 30 min. Stained cells were further fixed with BD Cytofix/Cytoperm solution for 10 min and re-suspended in FACS buffer for flow cytometry analysis. Cells were analyzed by a BD LSR Fortessa Flow cytometry (BD Biosciences, USA). FACS data were analyzed using FlowJo software Ver 9. 7. 6 (Tree Star Inc., USA).

[6] = tested on: OVA-sensitized and challenged mice; test: OVA-induced mouse model of allergic airway inflammation; format: in vivo
Description: Sensitization and airway challenge: For initial sensitization, BALB/c mice were administered intraperitoneally on day 0 with 20 μg of OVA emulsified in 200 μL of sterile PBS containing 1 mg of aluminum hydroxide adjuvant (Imject® Alum, Thermofisher, Korea). On day 14, the mice were boosted with the same allergen by IP injection. […] The mice were sacrificed at the indicated time points and BAL was performed. […] The control group received vehicle only. BAL: Immediately after sacrifice, lungs were lavaged as described above. Total leukocyte numbers were counted. Differential cell counts were performed by counting at least 200 cells on cytocentrifuged samples stained with Diff-Quick solution.

[7] = Kinetic aqueous solubility; format: physicochemical; conditions: 0.1 M potassium phosphate buffer, kinetic from dmso stock, PBS / phosphate buffer pH 7.4
Description: In brief, 10 mM stock solution of tested compounds was prepared in DMSO. 25 μL of the stock solution was added to a 1-mL uniprep vial containing 475 μL of 0.1 M potassium phosphate buffer (pH 7.4), and was shaken at 800 rpm for 90 min at room temperature. Following shaking, the mixture was filtered by slowly pressing the upper tube of the 1 mL Mini-Uniprep^TM filter (PTFE membrane, 0.45 μm). 250 μL of the filtrate solution was then transferred to a HPLC vial containing equal volume of acetonitrile.

hTSLP = target: T3, hTSLP (Homo sapiens, UniProt Q969D9); test: 1D and CPMG relaxation-edited NMR ligand binding; conditions: 1 at 100 μM, PBS buffer condition
T3 construct: human TSLP28–159 with thrombin cleavage site at C-terminus; thrombin cleavage site (C); 8xHis (from vector pAB-bee-8xHis) (C, cleaved yes); made in house; host or cells: Trichoplusia ni High-Five cells, baculovirus (secreted)
T3 sequence (Q969D9 28-159): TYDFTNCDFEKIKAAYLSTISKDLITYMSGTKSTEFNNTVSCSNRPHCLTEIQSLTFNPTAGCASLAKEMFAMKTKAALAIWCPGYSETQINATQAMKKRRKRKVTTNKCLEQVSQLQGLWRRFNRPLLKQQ

T1 sequence (Q969D9 28-159): as above

O=c1cc(-c2ccccc2)oc2cc(O)c(O)c(O)c12 [Compound 1, baicalein]
skin severity scores [1]: lower | inhibition of STAT5 phosphorylation, Western blot (in words) [2]: dose-dependent inhibition | number of allergen-specific T cells (HDM-challenged mice): not changed | number of eosinophils in BALF vs PBS-treated control (HDM-challenged mice): substantially reduced | total number of leukocytes in BALF vs PBS control (HDM-challenged mice): comparable | airway inflammation [3]: reduce | amount of FLAG-tagged hTSLP bound to His-tagged hTSLPR [4]: reduced in a dose-dependent manner | 1D NMR signals of the compound in the presence of the protein (carbonic anhydrase): no signal broadening | 1D NMR signals of the compound in the presence of the protein (hTSLPR): no signal broadening | STAT5 phosphorylation % ([5]; 3 µM): 65.7% | STAT5 phosphorylation % ([5]; 10 μM): 61.6% | hTSLP inhibitory activity in the in vitro STAT5 assay (in words) ([5]; HMC-1 cells, hTSLP 100 ng/mL, 30 min, compound 1 at 3 or 10 μM): inhibited | number of eosinophils recruited to the airways ([6]; 100 mg/kg IP, BALF 48 h): significantly reduced | eosinophil numbers in BALF over time ([6]; 100 mg/kg IP, as early as 24 h post injection, up to 72 h): decreased | inhibition of airway inflammation ([6]; single IP administration, 10, 50 or 100 mg/kg, BALF 48 h): dose-dependent manner | solubility kinetic at 90 min [7]: 62 µM (≈ 16.8 µg/mL) | 1D NMR signals of the compound in the presence of the protein (hTSLP): significantly broadened
